Experimental data as given in paper PMC4183567, “Cysteine Transport through Excitatory Amino Acid Transporter 3 (EAAT3)” (PLoS ONE, 2014).
Read-outs that look alike come from different tables or passages of the source.

Key:
EAATs = conditions: very low affinity; cited from earlier work
EAAT3 [1] = target: T1, EAAT3 (Homo sapiens, UniProt P43005); assay: mEGFPpH fluorescence imaging of intracellular pH in HEK293 cells co-expressing EAAT3; conditions: for mEGFPpH fluorescence change: EAAT3 HEK293 cells
T1 sequence (P43005 1-524): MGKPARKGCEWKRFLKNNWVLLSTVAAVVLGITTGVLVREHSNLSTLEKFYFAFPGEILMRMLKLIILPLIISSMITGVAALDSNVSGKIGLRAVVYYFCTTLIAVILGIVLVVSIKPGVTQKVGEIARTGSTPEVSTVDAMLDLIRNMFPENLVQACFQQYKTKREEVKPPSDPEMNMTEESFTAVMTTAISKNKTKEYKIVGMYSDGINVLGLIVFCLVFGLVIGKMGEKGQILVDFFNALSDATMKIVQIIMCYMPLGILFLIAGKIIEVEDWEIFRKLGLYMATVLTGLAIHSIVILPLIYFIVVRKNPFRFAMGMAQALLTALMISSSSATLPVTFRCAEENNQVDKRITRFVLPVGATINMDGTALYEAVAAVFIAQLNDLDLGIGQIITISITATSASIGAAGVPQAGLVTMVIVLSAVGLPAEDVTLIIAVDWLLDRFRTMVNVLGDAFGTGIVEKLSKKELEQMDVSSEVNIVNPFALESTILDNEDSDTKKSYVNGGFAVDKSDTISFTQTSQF
Description: (§5) Cells expressing mEGFPpH were imaged with a Zeiss Axiovert 135T inverted microscope with a 40X NeoFluar oil immersion objective (NA1.3). A Lambda DG4 (Sutter Instrument Co.) equipped with a xenon arc lamp was used for high-speed excitation wavelength switching. Images were collected using either a Quantix (Roper Scientific, Tucson, AZ) or an Orca ER (Hammamatsu Co.) cooled CCD. For pH imaging experiments, the fluorescence filters (Omega Optical) were: excitation 405±20 and 485±7.5; dichroic 400-480-585DLRP; emission 510±11.5. Software control and data acquisition were accomplished using Axon Imaging Workbench (INDEC Biosystems) or OpenLab acquisition software (Improvision, Perkin Elmer). Cells were incubated at room temperature with continuous perfusion using standard buffer containing (in mM): 146 NaCl, 5 KCl, 5 HEPES, 2.5 CaCl2 and 1.2 MgCl2 at pH 7.35 with additions (substrates etc.) as indicated in figure legends. Acquisition exposure times were identical for both 405 nm and 485 nm excitation wavelengths adjusted so that the 510 emission was not saturated for either excitation wavelength. Prior to perfusion with buffers containing substrates, cells were perfused in standard buffer to achieve a stable base line. Fluorescence was reported as the ratio of fluorescence at 510 nm by excitation with 485 and 405 nm wavelengths (F485/F405).

EAAT3 and ASCT1 [2] = assay: Substrate-gated NO3 currents in Xenopus oocytes co-expressing EAAT3 and ASCT1; assay type: cell-based, human; conditions: 1 mM substrate, oocytes co-expressing EAAT3 and ASCT1, n = 4
Description: (§1) mRNA from linearized pOTV-EAAT1, pOTV-EAAT2 and pOTV-EAAT3 was generated as previously described and resuspended in RNAase-free water and used for oocytes injections. Xenopus oocytes where injected with 50 nl of mRNA and incubated at 18°C in 96 mM NaCl, 2 mM KCl, 1.8 mM CaCl2, 1.0 mM MgCl2, 5 mM HEPES, pH 7.4 (ND96) supplemented with 2.5 mM Sodium Pyruvate and Gentamicyn for 2 to 3 days prior to using in electrophysiological recordings and radio-labeled transport experiments.
(§2) Oocytes were held at −60 mV, and currents elicited by 200 ms voltage steps between −120 mV and +60 mV were filtered at 2 kHz (−3dB) and digitalized with a sampling rate of 10 kHz using a Digidata AD/DA converter (Molecular Devices, Sunnyvale, CA, USA). Borosilicate pipets where filled with 3 M KCl and typical resistances where 0.2 to 1 MΩ. Transport currents were determined at −60 mV in a gluconate-based ND96 solution. In order to dialyze internal chloride, oocytes were incubated 12 to 24 hours in the gluconate solution. Anion currents were determined at positive potentials (+60 mV) after exchanging the external solution to NO3-based ND96 (replacement of 96 mM NaCl with 96 mM NaNO3) solution in the absence or in the presence of 1 mM external substrates. […] Data were analyzed with a combination of pClamp 9.2 (Axon Instrument) and Sigma Plot (Jandel Scientific, San Rafael, CA, USA). […]

EAAT3 and ASCT1 [3] = target: T2, EAAT3 and ASCT1 (Homo sapiens, UniProt P43005); assay: Release of preloaded [3H]-L-glutamate from Xenopus oocytes co-expressing EAAT3 and ASCT1; assay type: cell-based
T2 construct: expressed in transfected cells; host or cells: Xenopus oocytes
T2 sequence (P43005 1-524): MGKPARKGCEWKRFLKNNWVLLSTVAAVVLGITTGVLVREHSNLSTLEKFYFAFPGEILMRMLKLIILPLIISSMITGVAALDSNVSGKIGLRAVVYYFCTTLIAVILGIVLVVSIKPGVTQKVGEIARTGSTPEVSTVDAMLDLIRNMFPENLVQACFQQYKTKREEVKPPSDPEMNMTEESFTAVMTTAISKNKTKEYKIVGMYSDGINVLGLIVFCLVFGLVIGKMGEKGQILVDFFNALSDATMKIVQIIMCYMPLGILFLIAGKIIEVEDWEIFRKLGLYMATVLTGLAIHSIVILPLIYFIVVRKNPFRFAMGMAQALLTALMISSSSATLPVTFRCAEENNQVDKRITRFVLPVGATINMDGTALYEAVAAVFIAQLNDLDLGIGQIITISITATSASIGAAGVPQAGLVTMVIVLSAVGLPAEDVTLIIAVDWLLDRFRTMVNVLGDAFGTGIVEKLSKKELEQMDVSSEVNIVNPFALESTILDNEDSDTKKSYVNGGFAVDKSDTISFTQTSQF
Description: as §1
(§3) Oocytes were washed 3 times in ND96 buffer followed by incubation for 10 min with non-radiolabeled substrates as indicated. The supernatant was removed and collected for scintillation counting, while the oocytes were lysed in 1% sodium dodecylsulfate (SDS). The oocytes lysate and supernatant were counted separately by liquid scintillation counting to determine both retained and released radioactivity respectively. Percent of released radioactivity was determined as a function of the released/(retained + released).

EAAT3 [4] = target: T1, EAAT3; assay: Substrate-gated anion (NO3) currents in Xenopus oocytes expressing EAAT3; assay type: cell-based; conditions: 1 mM substrate; for average anion current amplitude at +60 mV: NaNO3, oocytes expressing EAAT3 alone, Figure 7C, n = 6
Description: as §1
Oocytes were held at −60 mV, and currents elicited by 200 ms voltage steps between −120 mV and +60 mV were filtered at 2 kHz (−3dB) and digitalized with a sampling rate of 10 kHz using a Digidata AD/DA converter (Molecular Devices, Sunnyvale, CA, USA). Borosilicate pipets where filled with 3 M KCl and typical resistances where 0.2 to 1 MΩ. Transport currents were determined at −60 mV in a gluconate-based ND96 solution. In order to dialyze internal chloride, oocytes were incubated 12 to 24 hours in the gluconate solution. Anion currents were determined at positive potentials (+60 mV) after exchanging the external solution to NO3-based ND96 (replacement of 96 mM NaCl with 96 mM NaNO3) solution in the absence or in the presence of 1 mM external substrates. In experiments using cysteine as a substrate, all solutions contained 2 mM dithiothreitol (DTT). Data were analyzed with a combination of pClamp 9.2 (Axon Instrument) and Sigma Plot (Jandel Scientific, San Rafael, CA, USA). Whole cell current amplitudes are shown without any subtraction protocol. Current-voltage relationships were constructed by plotting the isochronal current 6 ms after the voltage step versus the membrane potential. All data are given as the mean ± standard deviation of the mean (SDM). For evaluation the statistical relevance, the Student’s t-Test was used with an α of 0.05.

EAAT3 and ASCT1 [5] = assay: Release of preloaded [35S]-L-cysteine from Xenopus oocytes co-expressing EAAT3 and ASCT1; assay type: cell-based, human; conditions: 10 min
Description: (§4) mRNA from linearized pOTV-EAAT1, pOTV-EAAT2 and pOTV-EAAT3 was generated as previously described and resuspended in RNAase-free water and used for oocytes injections.
as §3

EAAT3 and ASCT1 [6] = target: T2, EAAT3 and ASCT1; assay: as above; assay type: cell-based
Description: as §4, §3

EAAT3 [7] = target: T1, EAAT3; assay: Glutamate inhibition of [35S]-L-cysteine uptake in Xenopus oocytes expressing EAAT3; assay type: cell-based; design: expressed in transfected cells; host or cells: HEK293
Description: as §1
Cysteine transport was measured for 10 min in Xenopus oocytes with serial dilution of a mixture of 10 mM cysteine and 20 nM [^35S]-L-cysteine in ND96. Transport was terminated by three washes of ND96, after which accumulated radiolabel was quantitated by liquid scintillation counting. […] Transport was terminated by three washes in ND96 followed by liquid scintillation counting.

EAAT2 = EAAT2 (Homo sapiens, UniProt P43004); assay: mEGFPpH fluorescence imaging of intracellular pH in HEK293 cells co-expressing EAAT2; assay type: cell-based; design: expressed in transfected cells; host or cells: HEK293; conditions: 1 mM perfusion
Description: as §5

[8] = substrate: N[C@@H](CCC(=O)O)C(=O)O; assay: cells, lysate or membranes; conditions: other: slope normalized to 1 mM glutamate, 0.5 µM to 2 mM glutamate; pH 7.35; 37.0 °C
[9] = substrate: N[C@@H](C[SeH])C(=O)O; assay: Two-electrode voltage clamp transport currents in Xenopus oocytes expressing EAAT3; assay type: cell-based, human; conditions: other: -60 mV, normalized transport current vs concentration, n = 6; pH 7.4; 18.0 °C
Description: as §1, §2

[10] = substrate: N[C@@H](CCC(=O)O)C(=O)O; assay: cells, lysate or membranes; assay type: cell-based, human; conditions: other: similarly transfected HEK293 cells
Description: For radiolabeled transport experiments, 2×10^6 cells were transfected in 1 mL of Opti-Mem (Life Technologies) using 6 µL of Lipofectamine 2000 (Invitrogen) with 1 µg pCMV-EAAT2 or pCMV-EAAT3 DNA and plated at 5×10^4 cells/well in 24 well Costar (Corning) plates with 0.5 mL DMEM culture media prepared as above. Following transfection and plating, cells were cultured 2–3 days prior to [^3H]-L-Glutamate transport experiments.

Sequence of EAAT2 (P43004 whole entry, the tested form may be a part): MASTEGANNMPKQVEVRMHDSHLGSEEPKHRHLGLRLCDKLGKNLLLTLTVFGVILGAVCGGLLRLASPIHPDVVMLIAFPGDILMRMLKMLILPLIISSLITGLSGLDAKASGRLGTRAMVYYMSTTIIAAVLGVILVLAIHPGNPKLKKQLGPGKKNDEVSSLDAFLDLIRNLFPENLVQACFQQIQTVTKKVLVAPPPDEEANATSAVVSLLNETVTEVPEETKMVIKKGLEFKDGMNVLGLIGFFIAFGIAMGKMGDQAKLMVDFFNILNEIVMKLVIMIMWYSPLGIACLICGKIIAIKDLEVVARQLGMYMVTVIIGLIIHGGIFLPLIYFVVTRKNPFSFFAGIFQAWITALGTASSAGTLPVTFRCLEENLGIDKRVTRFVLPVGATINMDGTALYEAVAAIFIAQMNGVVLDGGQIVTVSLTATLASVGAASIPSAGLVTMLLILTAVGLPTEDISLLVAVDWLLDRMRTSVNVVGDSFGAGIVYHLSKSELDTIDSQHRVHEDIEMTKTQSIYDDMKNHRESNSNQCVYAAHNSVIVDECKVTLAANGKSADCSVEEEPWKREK

With `C[C@H](N)C(=O)O` [alanine] as the molecule, how does the “affinity for the transporters” value (EAATs) read?
Its value is over 1 mM.

Which mEGFPpH fluorescence change (EAAT3 [1]; 100 µM perfusion) does the source give for `N[C@H](CC(=O)O)C(=O)O` [D-aspartate] here?
The mEGFPpH fluorescence change was “fluorescence decrease similar to that observed for 100 µM glutamate”.

With `Cl.N` [NH4Cl] as the molecule, how does the “average intracellular pH (pHi)” value (HEK293 cells; after NH4Cl washout) read?
The value was about 6.5.

And the “average intracellular pH (pHi)” value (HEK293 cells; during 50 mM NH4Cl perfusion, initial pHi ~7.4, n = 4)?
Its value is about 8.5.

Which results are given for `N[C@@H](CO)C(=O)O` [serine, L-serine]?
macroscopic anion current amplitude at +60 mV (EAAT3 and ASCT1 [2]): 0.6±0.07 µA; affinity for the transporters (EAATs): > 1 mM; release of loaded [3H]-L-glutamate (EAAT3 and ASCT1 [3]; 1 mM extracellular substrate, data not shown): did not induce significant release; average anion current amplitude at +60 mV (EAAT3 [4]): 0.60±0.05 µA; release of preloaded [35S]-L-cysteine (EAAT3 and ASCT1 [5]; 300 µM extracellular substrate): 10%; release of preloaded [35S]-L-cysteine (EAAT3 and ASCT1 [5]; 1 mM extracellular substrate): 20%

For `N[C@H](C(=O)O)[C@H](OCc1ccccc1)C(=O)O` [TBOA], which “effect on [3H]-L-glutamate release induced by K+ containing buffer” value (EAAT3 and ASCT1 [3]; TBOA co-application, data not shown) is on record?
Its value is “blocking this release”.

What about the “effect on [3H]-L-glutamate release induced by 100 µM L-glutamate” value (EAAT3 and ASCT1 [3]; TBOA co-incubation) of the same molecule?
The value was “blocked”.

What about the “effect on [3H]-L-glutamate release induced by cysteine” value (EAAT3 and ASCT1 [3]; TBOA co-incubation) of the same molecule?
Its value is “blocked”.

What about the “effect on cysteine-induced mEGFPpH fluorescence increase” value (EAAT3 [1]; 100 µM TBOA co-applied with 1 mM cysteine) of the same molecule?
Its value is “blocked”.

What about the “effect on glutamate-induced mEGFPpH fluorescence changes” value (EAAT3 [1]; co-application with glutamate, data not shown) of the same molecule?
Its value is “blocked”.

What about the “effect on [35S]-L-cysteine release in presence of 100 µM glutamate” value (EAAT3 and ASCT1 [6]; TBOA co-incubation) of the same molecule?
Its value is “not significantly inhibited”.

And the “effect on [35S]-cysteine release induced by 300 µM cysteine” value (EAAT3 and ASCT1 [6]; TBOA co-incubation)?
Its value is “not inhibited”.

With `N[C@@H](CCC(=O)O)C(=O)O` [glutamate, L-glutamate] as the molecule, how does the “macroscopic anion current amplitude at +60 mV” value (EAAT3 and ASCT1 [2]) read?
The value was 1.1±0.1 µA.

And the “release of loaded [3H]-L-glutamate” value (EAAT3 and ASCT1 [3]; 100 µM extracellular substrate)?
Its value is 5%.

What about the mEGFPpH fluorescence change (EAAT3 [1]; 0.5 µM perfusion) of the same molecule?
The mEGFPpH fluorescence change was “no observable fluorescence changes from baseline”.

What about the mEGFPpH fluorescence change (EAAT3 [1]; 1 mM perfusion) of the same molecule?
Its mEGFPpH fluorescence change is “fluorescence decrease”.

What about the inhibition at 100 µM (EAAT3 [7]; pH 6.9, read-out: inhibition of cysteine transport) of the same molecule?
Its inhibition at 100 µM is 40%.

What about the inhibition at 100 µM (EAAT3 [7]; pH 6.9, read-out: inhibition of cysteine uptake) of the same molecule?
Its inhibition at 100 µM is about 75%.

And the “anion current amplitude at +60 mV” value (EAAT3 [4]; NO3-based solution, Figure 2C, n = 4)?
The value was 1.78±0.4 µA.

And the “average anion current amplitude at +60 mV” value (EAAT3 [4])?
Its value is 2.2±0.12 µA.

What about the “release of preloaded [35S]-L-cysteine” value (EAAT3 and ASCT1 [6]; 100 µM extracellular substrate, 10 min) of the same molecule?
The value was “less than 2%”.

What about the mEGFPpH fluorescence change (EAAT2) of the same molecule?
The mEGFPpH fluorescence change was “significant quench of mEGFPpH fluorescence”.

B1: EAAT3 (Homo sapiens) (protein)
chain: MGKPARKGCEWKRFLKNNWVLLSTVAAVVLGITTGVLVREHSNLSTLEKFYFAFPGEILMRMLKLIILPLIISSMITGVAALDSNVSGKIGLRAVVYYFCTTLIAVILGIVLVVSIKPGVTQKVGEIARTGSTPEVSTVDAMLDLIRNMFPENLVQACFQQYKTKREEVKPPSDPEMNMTEESFTAVMTTAISKNKTKEYKIVGMYSDGINVLGLIVFCLVFGLVIGKMGEKGQILVDFFNALSDATMKIVQIIMCYMPLGILFLIAGKIIEVEDWEIFRKLGLYMATVLTGLAIHSIVILPLIYFIVVRKNPFRFAMGMAQALLTALMISSSSATLPVTFRCAEENNQVDKRITRFVLPVGATINMDGTALYEAVAAVFIAQLNDLDLGIGQIITISITATSASIGAAGVPQAGLVTMVIVLSAVGLPAEDVTLIIAVDWLLDRFRTMVNVLGDAFGTGIVEKLSKKELEQMDVSSEVNIVNPFALESTILDNEDSDTKKSYVNGGFAVDKSDTISFTQTSQF
notes: expressed in transfected cells; host or cells: HEK293
Which Km [8] does the source give for B1 here?
The Km was 30 µM.

And the Km [9]?
The Km was 7.14 ± 0.3 µM.

What about the Km [10] of the same molecule?
Its Km is 70 µM.
